Here are results for 16 compounds from patent US9249127B2 (Orion Corporation, priority 2012, dated 2016).

The target in the test is T1, alpha2A receptor (Homo sapiens, UniProt P08913).
T1 sequence (P08913 1-465): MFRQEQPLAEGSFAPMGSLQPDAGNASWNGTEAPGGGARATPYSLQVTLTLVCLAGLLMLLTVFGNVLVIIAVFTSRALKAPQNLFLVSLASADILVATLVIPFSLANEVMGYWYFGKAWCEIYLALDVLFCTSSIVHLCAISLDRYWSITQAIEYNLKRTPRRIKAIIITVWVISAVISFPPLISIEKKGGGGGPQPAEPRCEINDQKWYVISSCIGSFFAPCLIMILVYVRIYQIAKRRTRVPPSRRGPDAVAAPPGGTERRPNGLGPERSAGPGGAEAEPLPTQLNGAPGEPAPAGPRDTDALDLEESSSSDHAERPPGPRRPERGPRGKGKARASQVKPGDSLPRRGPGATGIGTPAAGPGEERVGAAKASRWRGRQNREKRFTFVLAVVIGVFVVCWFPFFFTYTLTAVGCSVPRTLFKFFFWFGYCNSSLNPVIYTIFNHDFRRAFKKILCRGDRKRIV
Put plainly: Alpha2A agonistic activity in vitro. Format: cell-based.

The mark [1] stands for this setting: Alpha2A Agonism pEC50, in vitro.
Setting [2] is: in vitro, read-out: Alpha2A Agonism pEC50 (converted).

Structures are written as SMILES. Where two headings read alike, the source gives them in different places.

Take `C[C@@H]1Cc2c(Br)cccc2C(C2=NCCN2)O1` (stereo partly drawn) [Example 32, 2-((3R)-5-bromo-3-methylisochroman-1-yl)-4,5-dihydro-1H-imidazole]: the EC50 under setting [1] was 1 nM. For the same compound, the “Alpha2A Intrinsic Activity” value (in vitro) is recorded as 0.92.
Consider `CCc1cccc2c1CCOC2C1=NCCN1` (single isomer, unassigned) [Example 96], for which the EC50 under setting [1] is 20 nM. Further, the “Alpha2A Intrinsic Activity” value (in vitro) is listed as 0.66.
`CC1(C2=NCCN2)OCc2cccc3cccc1c23` (single isomer, unassigned) [Example 103, 2-(1-methyl-1,3-dihydrobenzo[de]isochromen-1-yl)-4,5-dihydro-1H-imidazole] gave an EC50 under setting [1] of 6.31 nM. For the same compound, the “Alpha2A Intrinsic Activity” value (in vitro) came out at 0.74.
Under setting [1], `Cc1cc(C)c2c(c1)C(C1=NCCN1)OCC2` (centres unmarked) [Example 59, 2-(5,7-Dimethylisochroman-1-yl)-4,5-dihydro-1H-imidazole] had an EC50 of 39.8 nM. Moreover, the “Alpha2A Intrinsic Activity” value (in vitro) is on record as 0.81.
With `COc1cccc2c1C[C@H](C)OC2C1=NCCN1` (stereo partly drawn) [Example 53, 2-((3S)-5-methoxy-3-methylisochroman-1-yl)-4,5-dihydro-1H-imidazole], the “Alpha2A Intrinsic Activity” value (in vitro) was found to be 0.72. In addition, under setting [2], the EC50 is 316 nM.
Take `CC1Cc2c(Cl)cccc2C(C2=NCCN2)O1` (centres unmarked) [Example 26, 2-(5-Chloro-3-methylisochroman-1-yl)-4,5-dihydro-1H-imidazole]: the EC50 under setting [1] was 3.98 nM. Under “in vitro”, the “Alpha2A Intrinsic Activity” value was determined as 0.82.
In turn, `C=Cc1cccc2c1CCOC2C1=NCCN1` (centres unmarked) [Example 7, 2-(5-Vinylisochroman-1-yl)-4,5-dihydro-1H-imidazole] showed an EC50 under setting [1] of 39.8 nM. Besides, the “Alpha2A Intrinsic Activity” value (in vitro) was found to be 0.81.
With `C[C@@H]1Cc2c(cccc2C(F)(F)F)C(C2=NCCN2)O1` (stereo partly drawn) [Example 19, 2-((3R)-3-methyl-5-(trifluoromethyl)isochroman-1-yl)-4,5-dihydro-1H-imidazole], the EC50 under setting [1] is 5.01 nM. For the setting “in vitro”, the “Alpha2A Intrinsic Activity” value came out at 0.81.
The matching figures for `CSc1cccc2c1CCOC2C1=NCCN1` (centres unmarked) [Example 87, 2-(5-(Methylthio)isochroman-1-yl)-4,5-dihydro-1H-imidazole]: 63.1 nM and 0.75.
For `CCC1Cc2c(Br)cccc2C(C2=NCCN2)O1` (centres unmarked) [Example 43, 2-(5-Bromo-3-ethylisochroman-1-yl)-4,5-dihydro-1H-imidazole] the same measures were 50.1 nM and 0.58.
Consider `Cc1cccc2c1CC(CCF)OC2C1=NCCN1` (centres unmarked) [Example 81, 2-(3-(2-Fluoroethyl)-5-methylisochroman-1-yl)-4,5-dihydro-1H-imidazole], for which the “Alpha2A Intrinsic Activity” value (in vitro) amounted to 0.54. Besides, the EC50 under setting [2] was 158 nM.
On to `CC1(C2=NCCN2)OCCc2c(Br)cccc21` (single isomer, unassigned) [Example 106, 2-(5-bromo-1-methylisochroman-1-yl)-4,5-dihydro-1H-imidazole], for which the “Alpha2A Intrinsic Activity” value (in vitro) stood at 0.64. In addition, the EC50 under setting [2] was 158 nM.
On to `FC(F)c1cccc2c1CCOC2C1=NCCN1` (centres unmarked) [Example 99, 2-(5-(Difluoromethyl)isochroman-1-yl)-4,5-dihydro-1H-imidazole], for which the EC50 under setting [1] is 12.6 nM. Also, for the setting “in vitro”, the “Alpha2A Intrinsic Activity” value worked out at 0.73.
Regarding `CCCC1Cc2c(Br)cccc2C(C2=NCCN2)O1` (single isomer, unassigned) [Example 88, 2-((3)-5-bromo-3-propylisochroman-1-yl)-4,5-dihydro-1H-imidazole], under setting [1], the EC50 is 50.1 nM. In addition, under “in vitro”, the “Alpha2A Intrinsic Activity” value was 0.50.
In the case of `FC(F)(F)CC1Cc2c(Br)cccc2C(C2=NCCN2)O1` (single isomer, unassigned) [Example 83], under “in vitro”, the “Alpha2A Intrinsic Activity” value is 0.41. Moreover, the EC50 under setting [2] is 126 nM.
Turning to `Fc1cccc2c1CCOC2C1=NCCN1` (centres unmarked) [Example 42, 2-(5-Fluoroisochroman-1-yl)-4,5-dihydro-1H-imidazole], under setting [1], the EC50 is 39.8 nM. Also, where the note is “in vitro”, the “Alpha2A Intrinsic Activity” value turned out to be 0.62.
